The assay deals with Primary human T cells expressing FMC63-CAR with ERa LBD fusion. Briefly: Brefeldin A block of ligand-induced surface trafficking. The assay is classed as cell-based. The note with it: 1 uM pre-treatment; then 500 ng/mL 4-OHT two hours. The protocol: Primary human T cells expressing FMC63-CAR with ERa LBD fusion were left untreated or were treated with 500 ng/mL 4-OHT ligand for two hours to induce surface expression of the CAR. Prior to 4-OHT treatment, half the cells were pre-treated with 1 uM Brefeldin A (FIG. 12, bottom two panels) to inhibit protein export from the Golgi.

With `C[C@H]1CCC/C=C/[C@@H]2C[C@H](O)C[C@H]2[C@H](O)/C=C/C(=O)O1` [Brefeldin A], the “effect on 4-OHT-induced surface protein expression” value is on record as “prevented 4-OHT-induced increase in surface protein expression”.

The values above are taken from patent US11993660B2, “Chimeric polypeptides and methods of altering the membrane localization of the same” (Cell Design Labs, Inc., priority 2017, dated 2024).
